Key:
[1] = target: Phospholipase A2, major isoenzyme (Sus scrofa) (UniProt P00592); assay: Pre-steady-state inhibition constant against phospholipase A2; conditions: naja mocambique mocambique
[2] = target: Phospholipase A2, major isoenzyme (Sus scrofa) (UniProt P00592); assay: k_2 value calculated from 1/Ki=(1/Ks)(k2/k_2); conditions: naja mocambique mocambique

Phospholipase A2, major isoenzyme (Sus scrofa), sequence (P00592 23-146 limits assumed): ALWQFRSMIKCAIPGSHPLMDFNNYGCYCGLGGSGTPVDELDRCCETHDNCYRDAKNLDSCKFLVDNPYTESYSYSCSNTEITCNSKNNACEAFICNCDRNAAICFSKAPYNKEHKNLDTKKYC

K2 [1] [s⁻¹] | Ks [1] [µM] | k 2 [2] [s⁻¹] | Structure (SMILES)
0.21 | 21 | 0.15 | CCCCCCCCNC(=O)Oc1ccc(OC(=O)NCCCCCCCC)cc1
0.17 | 68 | 0.028 | CCCCCCCCNC(=O)Oc1ccccc1OC(=O)NCCCCCCCC
0.13 | 16 | 0.033 | CCCCCCCCNC(=O)Oc1cccc(OC(=O)NCCCCCCCC)c1
